Results published in US12552783B2, “Modulators of proteolysis and associated methods of use” (Arvinas Operations, Inc., priority 2018, dated 2026).

Biological target: KRas (Homo sapiens, UniProt P01116, G12C)
Assay: KRas degradation in NCI-H2030 cells by Western blot, normalized to GAPDH (data of Table 14)
Assay type: cell-based
Set-up: host or cells: NCI-H2030
Conditions: for Dmax: NCI-H2030
In short: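 Both lines are homozygous for KRas G12C and were serum-starved for 24 h before treatment with compound at 0.3, 1 or 3 μM in 0.1% DMSO: 24 h for VHL-based compounds, 72 h for the rest. Western blot of 10 μg lysate gave KRas signal normalized to GAPDH, and percent degradation was expressed relative to the DMSO control.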

Row | Structure (SMILES) | Percent Degradation at Indicated Concentration (μM): 0.3 (H2030 cells, 0.3 μM) | Percent Degradation at Indicated Concentration (μM): 1 (H2030 cells, 1 μM) | Percent Degradation at Indicated Concentration (μM): 3 (H2030 cells, 3 μM) | Dmax (H2030 cells) [%] | Percent Degradation at Indicated Concentration (μM) (H2030, 0.3 μM) | Percent Degradation at Indicated Concentration (μM) (H2030, 1 μM) | Percent Degradation at Indicated Concentration (μM) (H2030, 3 μM) | Dmax [%] | further results
1 | CN(CCOCCNc1cccc2c1C(=O)N(C1CCC(=O)NC1=O)C2=O)C(=O)CCNc1nc(N2CCN(C(N)=O)CC2)c2cc(Cl)c(-c3cc(O)cc4ccccc34)c(F)c2n1 (stereo not drawn) [compound 32, 4-(6-chloro-2-((3-((2-(2-((2-(2,6-dioxopiperidin-3-yl)-1,3-dioxoisoindolin-4-yl)amino)ethoxy)ethyl)(methyl)amino)-3-oxopropyl)amino)-8-fluoro-7-(3-hydroxynaphthalen-1-yl)quinazolin-4-yl)piperazine-1-carboxamide] | – | – | – | – | C (Percent Degradation: C ≤ 35) | C (Percent Degradation: C ≤ 35) | C (Percent Degradation: C ≤ 35) | ≤ 35 | –
2 | C=CC(=O)N1CCN(c2nc(NCCC(=O)N(C)CCOCCOCCOCCOc3ccc4c(c3)CN(C3CCC(=O)NC3=O)C4=O)nc3c(F)c(-c4c(O)cccc4F)c(Cl)cc23)CC1 [compound 93, 3-((4-(4-acryloylpiperazin-1-yl)-6-chloro-8-fluoro-7-((S)-2-fluoro-6-hydroxyphenyl)quinazolin-2-yl)amino)-N-(2-(2-(2-(2-((2-(2,6-dioxopiperidin-3-yl)-1-oxoisoindolin-5-yl)oxy)ethoxy)ethoxy)ethoxy)ethyl)-N-methylpropanamide] | – | – | – | – | C (Percent Degradation: C ≤ 35) | C (Percent Degradation: C ≤ 35) | C (Percent Degradation: C ≤ 35) | ≤ 35 | –
3 | C=CC(=O)N1CCN(c2nc(O[C@H](C)CN3CCC(OCCOc4ccc5c(c4)C(=O)N(C4CCC(=O)NC4=O)C5=O)CC3)nc3c2CCN(c2cc(O)cc4ccccc24)C3)CC1 (stereo partly drawn) [compound 416, 5-(2-((1-((R)-2-((4-(4-acryloylpiperazin-1-yl)-7-(3-hydroxynaphthalen-1-yl)-5,6,7,8-tetrahydropyrido[3,4-d]pyrimidin-2-yl)oxy)propyl)piperidin-4-yl)oxy)ethoxy)-2-(2,6-dioxopiperidin-3-yl)isoindoline-1,3-dione] | – | – | – | – | – | – | – | – | Percent Degradation at Indicated Concentration (μM) (H2030 cells, 0.3 μM): C (Percent Degradation: C ≤ 35); Percent Degradation at Indicated Concentration (μM) (H2030 cells, 1 μM): C (Percent Degradation: C ≤ 35); Percent Degradation at Indicated Concentration (μM) (H2030 cells, 3 μM): C (Percent Degradation: C ≤ 35)
4 | C=CC(=O)N1CCN(c2nc(NCCC(=O)N(C)CCOCCOCCOCCNc3cccc4c3C(=O)N(C3CCC(=O)NC3=O)C4=O)nc3c(F)c(-c4cc(O)cc5ccccc45)c(Cl)cc23)CC1 (stereo not drawn) [compound 58, 3-((4-(4-acryloylpiperazin-1-yl)-6-chloro-8-fluoro-7-(3-hydroxynaphthalen-1-yl)quinazolin-2-yl)amino)-N-(2-(2-(2-(2-((2-(2,6-dioxopiperidin-3-yl)-1,3-dioxoisoindolin-4-yl)amino)ethoxy)ethoxy)ethoxy)ethyl)-N-methylpropanamide] | C (C ≤ 35) | C (C ≤ 35) | C (C ≤ 35) | ≤ 35 | – | – | – | – | –
5 | C=CC(=O)N1CCN(c2nc(NCCC(=O)N(C)CCOCCOCCOCCOCCNc3cccc4c3C(=O)N(C3CCC(=O)NC3=O)C4=O)nc3c(F)c(-c4c(O)cccc4F)c(Cl)cc23)CC1 [compound 115, 3-(((S)-4-(4-acryloylpiperazin-1-yl)-6-chloro-8-fluoro-7-(2-fluoro-6-hydroxyphenyl)quinazolin-2-yl)amino)-N-(14-((2-(2,6-dioxopiperidin-3-yl)-1,3-dioxoisoindolin-4-yl)amino)-3,6,9,12-tetraoxatetradecyl)-N-methylpropanamide] | – | – | – | – | – | – | C (Percent Degradation: C ≤ 35) | – | –

Now from value to compound, other results behind:

Row | Percent Degradation at Indicated Concentration (μM): 0.3 (H2030 cells, 0.3 μM) | Percent Degradation at Indicated Concentration (μM): 1 (H2030 cells, 1 μM) | Percent Degradation at Indicated Concentration (μM): 3 (H2030 cells, 3 μM) | Dmax (H2030 cells) [%] | Percent Degradation at Indicated Concentration (μM) (H2030, 0.3 μM) | Percent Degradation at Indicated Concentration (μM) (H2030, 1 μM) | Percent Degradation at Indicated Concentration (μM) (H2030, 3 μM) | Dmax [%] | Structure (SMILES) | further results
6 | C (C ≤ 35) | C (C ≤ 35) | C (C ≤ 35) | ≤ 35 | – | – | – | – | CCC(=O)N1CCN(c2nc(NCCC(=O)N(C)CCOCCOCCOc3ccc4c(c3)CN(C3CCC(=O)NC3=O)C4=O)nc3c(F)c(-c4cc(O)cc5ccccc45)c(Cl)cc23)CC1 (stereo not drawn) [compound 52, 3-((6-chloro-8-fluoro-7-(3-hydroxynaphthalen-1-yl)-4-(4-propionylpiperazin-1-yl)quinazolin-2-yl)amino)-N-(2-(2-(2-((2-(2,6-dioxopiperidin-3-yl)-1-oxoisoindolin-5-yl)oxy)ethoxy)ethoxy)ethyl)-N-methylpropanamide] | –
7 | C (C ≤ 35) | C (C ≤ 35) | C (C ≤ 35) | ≤ 35 | – | – | – | – | CCC(=O)N1CCN(c2nc(NCCC(=O)N(C)CCOCCOCCOCCOc3ccc4c(c3)C(=O)N(C3CCC(=O)NC3=O)C4=O)nc3c(F)c(-c4cc(O)cc5ccccc45)c(Cl)cc23)CC1 (stereo not drawn) [compound 49, 3-((6-chloro-8-fluoro-7-(3-hydroxynaphthalen-1-yl)-4-(4-propionylpiperazin-1-yl)quinazolin-2-yl)amino)-N-(2-(2-(2-(2-((2-(2,6-dioxopiperidin-3-yl)-1,3-dioxoisoindolin-5-yl)oxy)ethoxy)ethoxy)ethoxy)ethyl)-N-methylpropanamide] | –
8 | C (C ≤ 35) | C (C ≤ 35) | C (C ≤ 35) | ≤ 35 | – | – | – | – | C=CC(=O)N1CCN(c2nc(NCCC(=O)N(C)CCOCCOCCNc3cccc4c3C(=O)N(C3CCC(=O)NC3=O)C4=O)nc3c(F)c(-c4cc(O)cc5ccccc45)c(Cl)cc23)CC1 (stereo not drawn) [compound 57, 3-((4-(4-acryloylpiperazin-1-yl)-6-chloro-8-fluoro-7-(3-hydroxynaphthalen-1-yl)quinazolin-2-yl)amino)-N-(2-(2-(2-((2-(2,6-dioxopiperidin-3-yl)-1,3-dioxoisoindolin-4-yl)amino)ethoxy)ethoxy)ethyl)-N-methylpropanamide] | –
9 | – | – | – | – | C (Percent Degradation: C ≤ 35) | C (Percent Degradation: C ≤ 35) | C (Percent Degradation: C ≤ 35) | ≤ 35 | C=CC(=O)N1CCN(c2nc(NCCC(=O)N(C)CCOCCOCCOc3cc(-c4scnc4C)ccc3CNC(=O)[C@@H]3C[C@@H](O)CN3C(=O)[C@H](c3cc(C)no3)C(C)C)nc3c(F)c(-c4cc(O)cc5ccccc45)c(Cl)cc23)CC1 [compound 342, (2S,4R)-N-(2-(2-(2-(2-(3-((4-(4-acryloylpiperazin-1-yl)-6-chloro-8-fluoro-7-(3-hydroxynaphthalen-1-yl)quinazolin-2-yl)amino)-N-methylpropanamido)ethoxy)ethoxy)ethoxy)-4-(4-methylthiazol-5-yl)benzyl)-4-hydroxy-1-((S)-3-methyl-2-(3-methylisoxazol-5-yl)butanoyl)pyrrolidine-2-carboxamide] | –
10 | – | – | – | – | C (Percent Degradation: C ≤ 35) | C (Percent Degradation: C ≤ 35) | C (Percent Degradation: C ≤ 35) | ≤ 35 | C=CC(=O)N1CCN(c2nc(Nc3ccc(OCCOCCOCC(=O)N[C@H](C(=O)N4C[C@H](O)C[C@H]4C(=O)N[C@@H](C)c4ccc(-c5scnc5C)cc4)C(C)(C)C)cc3)nc3c(F)c(-c4cc(O)cc5ccccc45)c(Cl)cc23)CC1 [compound 482] | –
11 | C (C ≤ 35) | C (C ≤ 35) | C (C ≤ 35) | ≤ 35 | – | – | – | – | C=CC(=O)N1CCN(c2nc(NCCC(=O)N(C)CCOCCOCCOc3ccc4c(c3)CN(C3CCC(=O)NC3=O)C4=O)nc3c(F)c(-c4cc(O)cc5ccccc45)c(Cl)cc23)CC1 (stereo not drawn) [compound 66, 3-((4-(4-acryloylpiperazin-1-yl)-6-chloro-8-fluoro-7-(3-hydroxynaphthalen-1-yl)quinazolin-2-yl)amino)-N-(2-(2-(2-((2-(2,6-dioxopiperidin-3-yl)-1-oxoisoindolin-5-yl)oxy)ethoxy)ethoxy)ethyl)-N-methylpropanamide] | –
12 | C (C ≤ 35) | C (C ≤ 35) | C (C ≤ 35) | ≤ 35 | – | – | – | – | CCC(=O)N1CCN(c2nc(NCCC(=O)N(C)CCOCCOCC(=O)N[C@H](C(=O)N3C[C@H](O)C[C@H]3C(=O)N[C@@H](C)c3ccc(-c4scnc4C)cc3)C(C)(C)C)nc3c(F)c(-c4cc(O)cc5ccccc45)c(Cl)cc23)CC1 [compound 187, (2S,4R)-1-((2S)-2-(tert-butyl)-15-((6-chloro-8-fluoro-7-(3-hydroxynaphthalen-1-yl)-4-(4-propionylpiperazin-1-yl)quinazolin-2-yl)amino)-12-methyl-4,13-dioxo-6,9-dioxa-3,12-diazapentadecanoyl)-4-hydroxy-N-((S)-1-(4-(4-methylthiazol-5-yl)phenyl)ethyl)pyrrolidine-2-carboxamide] | –
13 | – | – | – | – | C (Percent Degradation: C ≤ 35) | C (Percent Degradation: C ≤ 35) | C (Percent Degradation: C ≤ 35) | ≤ 35 | Cc1ncsc1-c1ccc([C@H](C)NC(=O)[C@@H]2C[C@@H](O)CN2C(=O)[C@@H](NC(=O)COCCOCCN(C)C(=O)CCNc2nc(N3CCN(C(N)=O)CC3)c3cc(Cl)c(-c4c(O)cccc4F)c(F)c3n2)C(C)(C)C)cc1 (atropisomer, axis not shown) [compound 227, 4-((S)-6-chloro-8-fluoro-7-(2-fluoro-6-hydroxyphenyl)-2-(((S)-14-((2S,4R)-4-hydroxy-2-(((S)-1-(4-(4-methylthiazol-5-yl)phenyl)ethyl)carbamoyl)pyrrolidine-1-carbonyl)-4,15,15-trimethyl-3,12-dioxo-7,10-dioxa-4,13-diazahexadecyl)amino)quinazolin-4-yl)piperazine-1-carboxamide] | –
